Measurements reported in patent US9604982B2, “P2X7 modulators” (Janssen Pharmaceutica NV, priority 2013, dated 2017).
pIC50, pKi: −log10 of the molar value.

Columns and labels:
[1] = molecular target: T1, P2X7 (Homo sapiens (Human), UniProt Q99572); assay: Radioligand binding, human P2X7-1321N1 cell membranes, tracer tritiated A-804598; details: Table 3 (additional runs)
Experimental: (§1) P2X7 Antagonism in Recombinant Human P2X7 Cells or Recombinant Rat P2X7 Cells: (a) Ca^2+ Flux and (b) Radioligand Binding
On the day of the experiment, cell membrane preparations were made according to standard published methods. […] The compound can be prepared as described in the literature. […] The assay was terminated by filtration (GF/B filters pre-soaked with 0.3% PEI) and washed with washing buffer (Tris-HCl 50 mM). The IC50 generated in the binding assay was corrected for tracer concentration and affinity of the tracer to derive at the affinity (K) of the test compounds. […] Data are analyzed and graphed on Graphpad Prism 5.

[2] = molecular target: recombinant rat P2X7 channel (Rattus norvegicus (Rat), UniProt Q64663); assay: Ca2+ flux (FLIPR) in 1321N1 cells expressing recombinant rat P2X7 channel; assay type: cell-based; details: Table 3 (additional runs); 250 μM BzATP
Experimental: as §1
(§2) (a) Ca^2+ flux: 1321N1 cells expressing the recombinant human or rat P2X7 channel was cultured in HyQ DME/(HyClone/Dulbecco's Modified Eagle Medium) high glucose supplemented with 10% Fetal Bovine Serum (FBS) and appropriate selection marker. Cells were seeded at a density of 25000 cells/well (96-well clear bottom black walled plates) in 100 μl volume/well. On the day of the experiment, cell plates were washed with assay buffer, containing (in mM): 130 NaCl, 2 KCl, 1 CaCl2, 1 MgCl2, 10 HEPES, 5 glucose; pH 7.40 and 300 mOs. After the wash, cells were loaded with the Calcium-4 dye (Molecular Device) and incubated in the dark for 60 minutes. Test compounds were prepared at 250× the test concentration in neat DMSO. Intermediate 96-well compound plates were prepared by transferring 1.2 μL of the compound into 300 μL of assay buffer. A further 3× dilution occurred when transferring 50 μL/well of the compound plate to 100 μL/well in the cell plate. Cells were incubated with test compounds and dye for 30 minutes. […] The fluorescence change was measured 180 seconds after adding the agonist.

[3] = molecular target: T1, P2X7; assay: Ca2+ flux (FLIPR) in 1321N1 cells expressing recombinant human P2X7 channel; assay type: cell-based; details: Table 3 (additional runs); 250 μM BzATP
Experimental: as §1, §2

[4] = molecular target: T1, P2X7; assay: P2X7 antagonism in human peripheral blood mononuclear cells (PBMCs), IL-1β release after LPS + Bz-ATP (ELISA); assay type: cell-based; details: P2X7, Table 3 (additional runs), 10 μM compound, 0.5 mM Bz-ATP, read-out: PBMC 10 μM (% control)
Experimental: Human blood was collected using a blood donor program. […] Cells were incubated for an additional 1.5 hours. […] Data are analyzed and graphed on Graphpad Prism 5. […] The IC50 for each compound is then uploaded into 3DX.

Chain of recombinant rat P2X7 channel (Q64663 whole entry): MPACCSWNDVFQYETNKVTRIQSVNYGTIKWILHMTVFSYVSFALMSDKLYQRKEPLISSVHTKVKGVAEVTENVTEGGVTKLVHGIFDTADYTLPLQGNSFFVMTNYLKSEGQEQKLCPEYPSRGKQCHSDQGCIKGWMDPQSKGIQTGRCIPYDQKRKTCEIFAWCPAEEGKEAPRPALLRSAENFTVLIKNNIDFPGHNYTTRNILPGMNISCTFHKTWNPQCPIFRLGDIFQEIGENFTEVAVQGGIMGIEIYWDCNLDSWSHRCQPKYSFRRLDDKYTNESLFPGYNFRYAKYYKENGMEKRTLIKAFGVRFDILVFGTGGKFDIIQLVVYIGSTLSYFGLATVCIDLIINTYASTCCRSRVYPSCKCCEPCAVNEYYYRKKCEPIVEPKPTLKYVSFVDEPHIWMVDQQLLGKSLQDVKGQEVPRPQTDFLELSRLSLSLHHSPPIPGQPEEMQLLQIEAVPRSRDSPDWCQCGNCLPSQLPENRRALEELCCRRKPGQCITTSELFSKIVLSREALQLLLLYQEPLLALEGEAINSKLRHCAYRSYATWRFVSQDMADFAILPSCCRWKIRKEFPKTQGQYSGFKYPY
T1 sequence (Q99572 whole entry): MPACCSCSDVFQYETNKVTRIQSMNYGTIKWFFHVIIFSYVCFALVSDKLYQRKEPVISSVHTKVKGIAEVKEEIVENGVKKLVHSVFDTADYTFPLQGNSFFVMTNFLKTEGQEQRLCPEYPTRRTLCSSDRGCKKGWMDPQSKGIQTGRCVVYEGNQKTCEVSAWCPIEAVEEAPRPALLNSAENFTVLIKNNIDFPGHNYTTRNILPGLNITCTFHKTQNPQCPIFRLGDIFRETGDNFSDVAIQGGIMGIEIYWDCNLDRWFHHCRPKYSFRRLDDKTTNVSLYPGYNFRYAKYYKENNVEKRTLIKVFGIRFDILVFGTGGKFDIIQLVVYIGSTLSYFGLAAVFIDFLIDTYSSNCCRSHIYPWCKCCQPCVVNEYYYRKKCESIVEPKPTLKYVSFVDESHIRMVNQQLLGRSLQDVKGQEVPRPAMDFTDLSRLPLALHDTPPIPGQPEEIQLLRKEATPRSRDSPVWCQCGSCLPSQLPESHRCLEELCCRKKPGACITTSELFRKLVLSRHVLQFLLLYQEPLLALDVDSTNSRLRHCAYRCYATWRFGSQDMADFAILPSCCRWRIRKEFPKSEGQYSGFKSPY

Row | SMILES | pKi [1] | pIC50 [2] | pIC50 [3] | remaining activity at 10 µM [4]
1 | Cc1nc2c(c(-c3ccn[nH]3)n1)C[C@H](C)N(C(=O)c1ccc(Cl)cc1F)C2 (single isomer, unassigned) [Example 89, (S*)-(4-chloro-2-fluorophenyl)(2,6-dimethyl-4-(1H-pyrazol-5-yl)-5,6-dihydropyrido[3,4-d]pyrimidin-7(8H)-yl)methanone] | 8.11 |  |  | 
2 | Cc1nc2c(c(-c3ccn[nH]3)n1)C[C@@H](C)N(C(=O)c1cccc(OC(F)(F)F)c1)C2 (single isomer, unassigned) [Example 141, (R*)-(2,6-dimethyl-4-(1H-pyrazol-5-yl)-5,6-dihydropyrido[3,4-d]pyrimidin-7(8H)-yl)(3-(trifluoromethoxy)phenyl)methanone] |  | 4.91 | 5.05 | 
3 | COc1cccc(C(=O)N2Cc3nc(C)nc(-c4ccn[nH]4)c3CC2C)c1C (stereo not drawn) [Example 146, (2,6-dimethyl-4-(1H-pyrazol-5-yl)-5,6-dihydropyrido[3,4-d]pyrimidin-7(8H)-yl)(3-methoxy-2-methylphenyl)methanone] |  | < 5.00 | 5.98 | -0.8%
4 | Cc1nc2c(c(-c3ccn[nH]3)n1)CC(C)N(C(=O)c1cccc(OC(F)(F)F)c1)C2 (stereo not drawn) [Example 140, (2,6-dimethyl-4-(1H-pyrazol-5-yl)-5,6-dihydropyrido[3,4-d]pyrimidin-7(8H)-yl)(3-(trifluoromethoxy)phenyl)methanone] |  | 4.33 | < 5.00 | 52.5%
